This passage reports IC50 results from patent publication US20250340516A1, “Isoquinolinones as Modulators of POLRMT” (Pretzel Therapeutics, Inc., priority 2024, published 2025).

Where only a bound is given, the exact number is not on record here.

Chain of POLRMT (O00411 42-1230): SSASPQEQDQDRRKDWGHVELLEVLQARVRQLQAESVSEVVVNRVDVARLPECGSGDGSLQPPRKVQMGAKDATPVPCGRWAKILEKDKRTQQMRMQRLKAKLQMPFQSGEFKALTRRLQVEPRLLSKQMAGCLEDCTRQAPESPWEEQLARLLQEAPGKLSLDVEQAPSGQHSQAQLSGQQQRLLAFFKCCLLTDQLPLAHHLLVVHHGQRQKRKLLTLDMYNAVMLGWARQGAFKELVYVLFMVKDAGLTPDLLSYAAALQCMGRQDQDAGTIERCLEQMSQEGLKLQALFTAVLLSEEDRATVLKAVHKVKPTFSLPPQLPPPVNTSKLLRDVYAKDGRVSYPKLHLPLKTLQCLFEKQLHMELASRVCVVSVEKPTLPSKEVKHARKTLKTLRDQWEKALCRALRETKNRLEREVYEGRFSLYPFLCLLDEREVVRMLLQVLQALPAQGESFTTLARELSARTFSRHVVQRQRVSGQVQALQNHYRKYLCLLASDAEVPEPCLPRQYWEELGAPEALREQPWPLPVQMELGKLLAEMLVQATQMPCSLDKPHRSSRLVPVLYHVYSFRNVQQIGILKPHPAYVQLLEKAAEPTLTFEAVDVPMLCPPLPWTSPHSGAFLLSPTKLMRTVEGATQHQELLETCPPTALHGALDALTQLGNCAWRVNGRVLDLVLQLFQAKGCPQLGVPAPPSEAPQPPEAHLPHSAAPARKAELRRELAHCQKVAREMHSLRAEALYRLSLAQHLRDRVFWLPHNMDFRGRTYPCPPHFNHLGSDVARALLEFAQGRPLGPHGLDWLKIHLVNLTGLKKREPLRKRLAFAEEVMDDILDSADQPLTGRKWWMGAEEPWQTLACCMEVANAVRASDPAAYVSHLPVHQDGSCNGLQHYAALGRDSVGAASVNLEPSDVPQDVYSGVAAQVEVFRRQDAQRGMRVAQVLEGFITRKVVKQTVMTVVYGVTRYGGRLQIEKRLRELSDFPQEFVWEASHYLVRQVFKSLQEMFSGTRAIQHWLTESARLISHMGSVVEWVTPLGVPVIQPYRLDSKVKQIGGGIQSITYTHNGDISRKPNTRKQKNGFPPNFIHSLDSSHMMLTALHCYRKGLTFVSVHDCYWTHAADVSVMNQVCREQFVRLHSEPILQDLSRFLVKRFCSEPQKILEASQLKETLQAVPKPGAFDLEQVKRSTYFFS

The assay has as its target POLRMT (Homo sapiens (Human), UniProt O00411). As to the kind of experiment: homogeneous TR-FRET assay of POLRMT inhibition (mitochondrial transcription, 407 bp RNA product). It counts as biochemical. To be noted: 7.5 nM POLRMT, 15 nM TFB2M, 30 nM TFAM, 0.5 nM DNA template, 500 μM NTPs, 37° C., 60 minutes, * = aggregation of data sets, read-out: IC50 values for isoquinolinone compounds. On the procedure: The inhibitory activity of the compounds of the present invention against POLRMT were determined by assays based on Bergbrede, T., et al., “An adaptable high-throughput technology enabling the identification of specific transcription modulators,” SLAC Discov., 22, 378-386 (2017).
The ability of some compounds of the present invention to inhibit POLRMT were determined in a homogeneous TR-FRET Assay using high-throughput screening in a 384-well plate format. This method is used to monitor the activity of mitochondrial transcription through measurement of its product, a 407 bp long RNA transcript. Detection of the product is facilitated by hybridization of two DNA-oligonucleotide probes to specific and adjacent sequences within the RNA product sequence. Upon annealing of the probes, two fluorophores are coupled directly to an acceptor nucleotide probe (ATTO647, 5′), or introduced via a coupled streptavidin with a biotinylated donor nucleotide probe (Europium cryptate) that is brought into sufficient proximity to serve as a fluorescence-donor-acceptor pair. Thus, a FRET signal at 665 nm is generated upon excitation at 340 nm.
Proteins used as transcription factors (POLRMT: NP_005026.3, TFAM: NP_003192.1, TFB2M: NP_071761.1) are diluted from their stocks to working concentrations of 1 μM, 20 μM and 4 μM respectively, in a dilution buffer containing 20 mM Tris-HCl (pH 8.0), 200 mM NaCl, 10% (v/v) glycerol, 1 mM Dithiothreitol (DTT), 0.5 mM EDTA.
DNA template is a pUC18 plasmid with the mitochondrial light strand promotor sequence (1-477) cloned between HindIII and BamHI sites. The DNA template is restriction linearized proximal to the promotor 3′-end (pUC-LSP).
The reaction mixture (10 uL) containing 7.5 nM POLRMT, 15 nM of TFB2M, 30 nM of TFAM, 0.5 nM of DNA template and 500 μM nucleotide triphosphate mix (NTPs) in a reaction buffer (containing 10 mM Tris-HCl (pH 7.5), 10 mM MgCl2, 40 mM NaCl, 10 mM DTT, 0.005% (w/v) Tween-20, 160 units/ml Rnase inhibitor and 0.1 mg/mL BSA) are dispensed to compounds in microplates, using a Thermo Multidrop® dispenser, and incubated at 37° C. in a VWR INCU-Line incubator for 60 minutes after mixing. No nucleotide triphosphate mix is added to negative control samples. Microplates with compounds to be tested in the assay are prepared from 10 mM compound stocks in 100% DMSO, equal amounts of DMSO without any compound are added to positive control and negative control samples.
During the incubation, a mix of the detection reagents is prepared in a buffer such that the enzymatic reaction is terminated due to chelating of Mg-ions and increased ionic strength, containing 50 mM Tris-HCl (pH 7.5), 700 mM NaCl, 20 mM EDTA, and 0.01% (w/v) Tween-20. Europium-streptavidin is pre-incubated with a 200-fold molar excess of a random sequence oligonucleotide to block unspecific binding of oligo, for two hours at ambient temperature in the dark. Afterwards, the blocked Europium-streptavidin is kept on ice until use.
At the end of the enzymatic reaction time, 5 μL detection oligo mix in the detection buffer is added, and assay plates are mixed and kept at ambient temperature for one hour, protected from light. The concentration of the Acceptor nucleotide oligo (e.g., ATTO647N-5′-[…]-3′ (SEQ ID NO: 1)) and Donor nucleotide oligo (e.g., bio-5′-AACACATCTCT(-bio)GCCAAACCCCA-bio-3′ (SEQ ID NO: 2)) in each assay well is 1 nM, and 3 nM, respectively.
After incubation with oligo mix, 5 μL of pre-blocked Europium-streptavidin reagent is dispensed to each assay well, assay plates are again mixed and kept at ambient temperature for one hour, protected from light.
The generated signal is measured with BMG Pherastar microtiter plate reader with a TRF light unit, using excitation at 340 nm, an integration time of 200 μs, and a delay time of 100 μs, before detection at 620 nm and 665 nm. The ratio of donor- and acceptor-fluorescence is used as a measure of the generated transcript product (i.e. enzymatic activity).
The IC50 is the concentration needed to halve the response being measured. Take `Cc1ccccc1-c1c[nH]c(=O)c2cc(O[C@H](C)C(=O)NC3(C(N)=O)CC3)ccc12` [Example 62, (R)-1-(2-((1-oxo-4-(o-tolyl)-1,2-dihydroisoquinolin-7-yl)oxy)propanamido)cyclopropane-1-carboxamide]: the IC50 amounted to 100 nM.
For `Cc1ccccc1-c1c[nH]c(=O)c2cc(O[C@H](C)C(=O)N3CCCC(C4(C(N)=O)CC4)C3)ccc12` (single isomer, unassigned) [Example 40] the value was 20 nM; for `Cc1ccccc1-c1c[nH]c(=O)c2cc(O[C@H](C)C(=O)N3CCC(N(C)C)CC3)ccc12` [Example 31, (R)-7-((1-(4-(dimethylamino)piperidin-1-yl)-1-oxopropan-2-yl)oxy)-4-(o-tolyl)isoquinolin-1(2H)-one], 300 nM; for `C[C@@H](Oc1ccc2c(-c3ccc(F)cc3Cl)c[nH]c(=O)c2c1)C(=O)N1CCCC(C(C)(C)C(=O)O)C1` (single isomer, unassigned) [Example 50], 60 nM.
For `C[C@@H](C(=O)N1CCC[C@H](C(=O)O)C1)N(C)c1ccc2c(-c3ccc(F)cc3Cl)c[nH]c(=O)c2c1` (single isomer, unassigned) [Example 4] the value was 100 nM; for `CC(=O)N[C@H]1CCCN(C(=O)[C@@H](C)Oc2ccc3c(-c4ccccc4C)c[nH]c(=O)c3c2)C1` [Example 28, N-((S)-1-((R)-2-((1-oxo-4-(o-tolyl)-1,2-dihydroisoquinolin-7-yl)oxy)propanoyl)piperidin-3-yl)acetamide], 100 nM.
For `Cc1ccccc1-c1c[nH]c(=O)c2cc(O[C@H](C)C(=O)N[C@H](C)C(N)=O)ccc12` [Example 21, (R)-N-((R)-1-amino-1-oxopropan-2-yl)-2-((1-oxo-4-(o-tolyl)-1,2-dihydroisoquinolin-7-yl)oxy)propanamide] the value was 200 nM; for `N#CCOc1ccc2c(-c3ccccc3OC(F)(F)F)c[nH]c(=O)c2c1` [Example 49, 2-((1-oxo-4-(2-(trifluoromethoxy)phenyl)-1,2-dihydroisoquinolin-7-yl)oxy)acetonitrile], above 100000 nM.
Turning to `COc1ccc2c(-c3ccccc3C(C)O)c[nH]c(=O)c2c1` (centres unmarked) [Example 11, 4-(2-(1-hydroxyethyl)phenyl)-7-methoxyisoquinolin-1(2H)-one], the IC50 is 62000 nM.
With `CC(=O)N(C)CCNC(=O)[C@@H](C)Oc1ccc2c(-c3ccccc3C)c[nH]c(=O)c2c1` [Example 17, (R)-N-(2-(N-methylacetamido)ethyl)-2-((1-oxo-4-(o-tolyl)-1,2-dihydroisoquinolin-7-yl)oxy)propanamide], the IC50 was 2000 nM.
For `C[C@@H](Oc1ccc2c(-c3ccc(F)cc3Cl)c[nH]c(=O)c2c1)C(=O)N1CCCC(C2(C(=O)O)CC2)C1` (single isomer, unassigned) [Example 37] the value was 50 nM; for `COCCN1CCN(C(=O)[C@@H](C)Oc2ccc3c(-c4ccccc4C)c[nH]c(=O)c3c2)CC1=O` [Example 23, (R)-7-((1-(4-(2-methoxyethyl)-3-oxopiperazin-1-yl)-1-oxopropan-2-yl)oxy)-4-(o-tolyl)isoquinolin-1(2H)-one], 300 nM; for `Cc1ccccc1-c1c[nH]c(=O)c2cc(O[C@H](C)C(=O)N3CCC(NC(N)=O)CC3)ccc12` [Example 30, (R)-1-(1-(2-((1-oxo-4-(o-tolyl)-1,2-dihydroisoquinolin-7-yl)oxy)propanoyl)piperidin-4-yl)urea], 70 nM.
For `[2H]C([2H])([2H])c1ccccc1-c1c[nH]c(=O)c2cc(O[C@H](C)C(=O)N3CCN(C(N)=O)CC3)ccc12` [Example 74, (R)-4-(2-((4-(2-(methyl-d3)phenyl)-1-oxo-1,2-dihydroisoquinolin-7-yl)oxy)propanoyl)piperazine-1-carboxamide] the value was 80 nM; for `COCCc1ccccc1-c1c[nH]c(=O)c2cc(OCC#N)ccc12` [Example 63, 2-((4-(2-(2-methoxyethyl)phenyl)-1-oxo-1,2-dihydroisoquinolin-7-yl)oxy)acetonitrile], above 100000 nM.
For `CCCC1(C(=O)O)CCCN(C(=O)[C@@H](C)Oc2ccc3c(-c4ccccc4C)c[nH]c(=O)c3c2)C1` (single isomer, unassigned) [Example 67] the value was 40 nM; for `Cc1ccccc1-c1c[nH]c(=O)c2cc(O[C@H](C)C(=O)N3CCCCC(N(C)C)C3)ccc12` (single isomer, unassigned) [Example 76], 2000 nM.
As to `Cc1ccccc1-c1c[nH]c(=O)c2cc(O[C@H](C)C(=O)N3CCC[C@H](N(C)C)C3)ccc12` [Example 32, 7-(((R)-1-((S)-3-(dimethylamino)piperidin-1-yl)-1-oxopropan-2-yl)oxy)-4-(o-tolyl)isoquinolin-1(2H)-one], the IC50 is 200 nM.
For `CNC1CCN(C(=O)[C@@H](C)Oc2ccc3c(-c4ccccc4C)c[nH]c(=O)c3c2)CC1` [Example 68, (R)-7-((1-(4-(methylamino)piperidin-1-yl)-1-oxopropan-2-yl)oxy)-4-(o-tolyl)isoquinolin-1(2H)-one] the value was 200 nM; for `CC(=O)NCCN(C)C(=O)[C@@H](C)Oc1ccc2c(-c3ccccc3C)c[nH]c(=O)c2c1` [Example 19, (R)-N-(2-acetamidoethyl)-N-methyl-2-((1-oxo-4-(o-tolyl)-1,2-dihydroisoquinolin-7-yl)oxy)propanamide], 2000 nM.
